Assay results as given in patent US6914045B2, “Glycopeptide antibiotics” (Wyeth Holdings Corporation, priority 2001, dated 2005).

Columns and labels:
Experiment in all cases: in vitro antibacterial evaluation, MIC by broth dilution
Assay type in all cases: cell-based
Enterococcus sp. = conditions: broth dilution, 18 hours at 35° C.
Summary of the method: (§1)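 Broth dilution per NCCLS standard M7-A2 in Muller-Hinton II […], with an inoculum of 5×10^5 CFU/mL and antibiotic spanning 64-0.06 μg/mL. The MIC is the lowest concentration that inhibits growth of the organism.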

Staphylococcus sp. = conditions: broth dilution, 18 hours at 35° C.; for MIC Staphylococcus aureus (ATCC 29213): strain ATCC 29213; for MIC Staphylococcus aureus (GC 1131): strain GC 1131; for MIC Staphylococcus aureus (GC 3051): strain GC 3051; for MIC Staphylococcus aureus (GC 3053): strain GC 3053; for MIC Staphylococcus aureus (GC 4541): strain GC 4541; for MIC Staphylococcus aureus (GC 4542): strain GC 4542; for MIC Staphylococcus aureus-SMITH (GC 4543): strain GC 4543; for MIC Staphylococcus aureus (GC 4544): strain GC 4544; for MIC Staphylococcus aureus (GC 4545): strain GC 4545; for MIC Staphylococcus haemolyticus (GC 4546): strain GC 4546; for MIC Coagulase Negative Staphylococcus (GC 4547): strain GC 4547; for MIC Coagulase Negative Staphylococcus (GC 4548): strain GC 4548; for MIC Coagulase Negative Staphylococcus (GC 4549): strain GC 4549; for MIC Coagulase Negative Staphylococcus (GC 4551): strain GC 4551; for MIC Coagulase Negative Staphylococcus (GC 6257): strain GC 6257
Summary of the method: as §1

Streptococcus sp. = conditions: broth dilution, 18 hours at 35° C.
Summary of the method: as §1

Escherichia coli = conditions: 18 hours at 35° C.
[1] = inoculum 5×10^5 CFU/mL, strain ATCC 29212
[2] = inoculum 5×10^5 CFU/mL, strain GC 2242
[3] = inoculum 5×10^5 CFU/mL, strain GC 2243
[4] = inoculum 5×10^5 CFU/mL, strain GC 2691
[5] = inoculum 5×10^5 CFU/mL, strain GC 3059
[6] = inoculum 5×10^5 CFU/mL, strain GC 4552
[7] = inoculum 5×10^5 CFU/mL, strain GC 4553
[8] = inoculum 5×10^5 CFU/mL, strain GC 4554
[9] = inoculum 5×10^5 CFU/mL, strain GC 4556
[10] = inoculum 5×10^5 CFU/mL, strain GC 4557
[11] = inoculum 5×10^5 CFU/mL, strain GC 4558
[12] = inoculum 5×10^5 CFU/mL, strain GC 6189
[13] = inoculum 5×10^5 CFU/mL, strain ATCC 6301
[14] = inoculum 5×10^5 CFU/mL, strain GC 1894
[15] = inoculum 5×10^5 CFU/mL, strain GC 4563
[16] = inoculum 5×10^5 CFU/mL, strain GC 4564
[17] = inoculum 5×10^5 CFU/mL, strain GC 4565

CC(c1ccccc1)C1NC(=O)CNC(=O)C(CO)NC(=O)C(C(O)C2CNC(=N)N2C2OC(CO)C(O)C(O)C2O)NC(=O)C(C(O)C2CNC(=N)N2)NC(=O)C(Cc2ccc(OC3OC(CO)C(OC4OC5COC6(CCCCCCCCCCCC6)OC5C(O)C4O)C(O)C3O)cc2)NC1=O (centres unmarked) [Example 210]
8 µg/mL: MIC Enterococcus faecalis (GC 2691) (Enterococcus sp.) | MIC Enterococcus faecalis (GC 2691) (Enterococcus sp.; [4]) | MIC Coagulase Negative Staphylococcus (GC 4549) (Staphylococcus sp.)
0.25 µg/mL: MIC Streptococcus agalactiae (GC 4564) (Streptococcus sp.) | MIC Streptococcus pneumoniae (ATCC 6301) (Streptococcus sp.) | MIC Streptococcus pneumoniae (ATCC 6301) (Streptococcus sp.; [13]) | MIC Streptococcus agalactiae (GC 4564) (Streptococcus sp.; [16])
16 µg/mL: MIC Enterococcus avium (GC 4558) (Enterococcus sp.) | MIC Enterococcus faecalis (GC 2242) (Enterococcus sp.) | MIC Enterococcus faecalis (GC 4553) (Enterococcus sp.) | MIC Enterococcus faecalis (GC 6189) (Enterococcus sp.) | MIC Enterococcus faecalis (GC 2242) (Enterococcus sp.; [2]) | MIC Enterococcus faecalis (GC 4553) (Enterococcus sp.; [7]) | MIC Enterococcus avium (GC 4558) (Enterococcus sp.; [11]) | MIC Enterococcus faecalis (GC 6189) (Enterococcus sp.; [12])
<0.06 µg/mL: MIC Streptococcus pneumoniae (GC 1894) (Streptococcus sp.) | MIC Streptococcus pneumoniae (GC 4565) (Streptococcus sp.) | MIC Streptococcus pneumoniae (GC 1894) (Streptococcus sp.; [14]) | MIC Streptococcus pneumoniae (GC 4565) (Streptococcus sp.; [17])
32 µg/mL: MIC Enterococcus faecalis (ATCC 29212) (Enterococcus sp.) | MIC Enterococcus faecalis (GC 3059) (Enterococcus sp.) | MIC Enterococcus faecalis (GC 4552) (Enterococcus sp.) | MIC Enterococcus faecalis (GC 4554) (Enterococcus sp.) | MIC Enterococcus faecium (GC 2243) (Enterococcus sp.) | MIC Enterococcus faecium (GC 4556) (Enterococcus sp.) | MIC Enterococcus faecium (GC 4557) (Enterococcus sp.) | MIC Enterococcus faecalis (ATCC 29212) (Enterococcus sp.; [1]) | MIC Enterococcus faecium (GC 2243) (Enterococcus sp.; [3]) | MIC Enterococcus faecalis (GC 3059) (Enterococcus sp.; [5]) | MIC Enterococcus faecalis (GC 4552) (Enterococcus sp.; [6]) | MIC Enterococcus faecalis (GC 4554) (Enterococcus sp.; [8]) | MIC Enterococcus faecium (GC 4556) (Enterococcus sp.; [9]) | MIC Enterococcus faecium (GC 4557) (Enterococcus sp.; [10]) | MIC Staphylococcus aureus (ATCC 29213) (Staphylococcus sp.) | MIC Staphylococcus aureus (GC 1131) (Staphylococcus sp.) | MIC Staphylococcus aureus (GC 3051) (Staphylococcus sp.) | MIC Staphylococcus aureus (GC 3053) (Staphylococcus sp.) | MIC Staphylococcus aureus (GC 4541) (Staphylococcus sp.) | MIC Staphylococcus aureus (GC 4542) (Staphylococcus sp.) | MIC Staphylococcus aureus-SMITH (GC 4543) (Staphylococcus sp.) | MIC Staphylococcus aureus (GC 4544) (Staphylococcus sp.) | MIC Staphylococcus aureus (GC 4545) (Staphylococcus sp.) | MIC Staphylococcus haemolyticus (GC 4546) (Staphylococcus sp.) | MIC Coagulase Negative Staphylococcus (GC 4547) (Staphylococcus sp.) | MIC Coagulase Negative Staphylococcus (GC 4548) (Staphylococcus sp.) | MIC Coagulase Negative Staphylococcus (GC 4551) (Staphylococcus sp.) | MIC Coagulase Negative Staphylococcus (GC 6257) (Staphylococcus sp.)
>64 µg/mL: MIC Escherichia coli (ATCC 25922) (Escherichia coli) | MIC Escherichia coli (GC 4559) (Escherichia coli)
64 µg/mL: MIC Escherichia coli (GC 4560) (Escherichia coli)
2 µg/mL: MIC Streptococcus pyogenes (GC 4563) (Streptococcus sp.) | MIC Streptococcus pyogenes (GC 4563) (Streptococcus sp.; [15])

CC(c1ccccc1)C1NC(=O)CNC(=O)C(CO)NC(=O)C(C(O)C2CNC(=N)N2C2OC(CO)C(O)C(O)C2O)NC(=O)C(C(O)C2CNC(=N)N2)NC(=O)C(Cc2ccc(OC3OC(CO)C(OC4OC(CO)C(O)C5OC6(CCCCCCCCCCCC6)OC45)C(O)C3O)cc2)NC1=O (centres unmarked) [Example 210a]
>64 µg/mL: MIC Escherichia coli (ATCC 25922) (Escherichia coli) | MIC Escherichia coli (GC 4559) (Escherichia coli)
1 µg/mL: MIC Streptococcus pyogenes (GC 4563) (Streptococcus sp.) | MIC Streptococcus pyogenes (GC 4563) (Streptococcus sp.; [15])
16 µg/mL: MIC Escherichia coli (GC 4560) (Escherichia coli)
<0.06 µg/mL: MIC Streptococcus pneumoniae (GC 1894) (Streptococcus sp.) | MIC Streptococcus pneumoniae (GC 1894) (Streptococcus sp.; [14])
2 µg/mL: MIC Coagulase Negative Staphylococcus (GC 4549) (Staphylococcus sp.) | MIC Streptococcus agalactiae (GC 4564) (Streptococcus sp.) | MIC Streptococcus agalactiae (GC 4564) (Streptococcus sp.; [16])
4 µg/mL: MIC Enterococcus avium (GC 4558) (Enterococcus sp.) | MIC Enterococcus faecium (GC 2243) (Enterococcus sp.) | MIC Enterococcus faecium (GC 4557) (Enterococcus sp.) | MIC Enterococcus faecium (GC 2243) (Enterococcus sp.; [3]) | MIC Enterococcus faecium (GC 4557) (Enterococcus sp.; [10]) | MIC Enterococcus avium (GC 4558) (Enterococcus sp.; [11]) | MIC Staphylococcus aureus (ATCC 29213) (Staphylococcus sp.) | MIC Staphylococcus aureus (GC 1131) (Staphylococcus sp.) | MIC Staphylococcus aureus (GC 3053) (Staphylococcus sp.) | MIC Staphylococcus aureus (GC 4541) (Staphylococcus sp.) | MIC Staphylococcus aureus-SMITH (GC 4543) (Staphylococcus sp.) | MIC Staphylococcus aureus (GC 4545) (Staphylococcus sp.) | MIC Coagulase Negative Staphylococcus (GC 4547) (Staphylococcus sp.) | MIC Coagulase Negative Staphylococcus (GC 4548) (Staphylococcus sp.) | MIC Coagulase Negative Staphylococcus (GC 4551) (Staphylococcus sp.) | MIC Coagulase Negative Staphylococcus (GC 6257) (Staphylococcus sp.)
0.5 µg/mL: MIC Streptococcus pneumoniae (ATCC 6301) (Streptococcus sp.) | MIC Streptococcus pneumoniae (ATCC 6301) (Streptococcus sp.; [13])
0.25 µg/mL: MIC Streptococcus pneumoniae (GC 4565) (Streptococcus sp.) | MIC Streptococcus pneumoniae (GC 4565) (Streptococcus sp.; [17])
8 µg/mL: MIC Enterococcus faecalis (ATCC 29212) (Enterococcus sp.) | MIC Enterococcus faecalis (GC 2242) (Enterococcus sp.) | MIC Enterococcus faecalis (GC 2691) (Enterococcus sp.) | MIC Enterococcus faecalis (GC 3059) (Enterococcus sp.) | MIC Enterococcus faecalis (GC 4552) (Enterococcus sp.) | MIC Enterococcus faecalis (GC 4553) (Enterococcus sp.) | MIC Enterococcus faecalis (GC 4554) (Enterococcus sp.) | MIC Enterococcus faecalis (GC 6189) (Enterococcus sp.) | MIC Enterococcus faecium (GC 4556) (Enterococcus sp.) | MIC Enterococcus faecalis (ATCC 29212) (Enterococcus sp.; [1]) | MIC Enterococcus faecalis (GC 2242) (Enterococcus sp.; [2]) | MIC Enterococcus faecalis (GC 2691) (Enterococcus sp.; [4]) | MIC Enterococcus faecalis (GC 3059) (Enterococcus sp.; [5]) | MIC Enterococcus faecalis (GC 4552) (Enterococcus sp.; [6]) | MIC Enterococcus faecalis (GC 4553) (Enterococcus sp.; [7]) | MIC Enterococcus faecalis (GC 4554) (Enterococcus sp.; [8]) | MIC Enterococcus faecium (GC 4556) (Enterococcus sp.; [9]) | MIC Enterococcus faecalis (GC 6189) (Enterococcus sp.; [12]) | MIC Staphylococcus aureus (GC 3051) (Staphylococcus sp.) | MIC Staphylococcus aureus (GC 4542) (Staphylococcus sp.) | MIC Staphylococcus aureus (GC 4544) (Staphylococcus sp.) | MIC Staphylococcus haemolyticus (GC 4546) (Staphylococcus sp.)
